The subject of one assay is AMARE. Briefly: A. Herbicidal pre-emergence action on harmful plants (Tables A). Type of assay: in vivo, Amaranthus retroflexus. The procedure, abridged:
(§1)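 Greenhouse pre-emergence test: compound applied to the soil surface at 1280 g/ha or below, and herbicidal effect rated visually at ca. 3 weeks on a 0–100% scale against untreated plants.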

In another assay the test system is SETVI. The description is as above. In kind it is in vivo, Setaria viridis. The note with it: visual grading after ca. 3 weeks vs untreated controls, 100% = plants have died off, 0% = as control plants. The procedure, abridged:
as §1

Another assay has as its system MATIN. The description is as above. The note with it: visual grading after ca. 3 weeks vs untreated controls, 100% = plants have died off, 0% = as control plants. Type of assay: in vivo, Matricaria inodora. An outline of the steps:
as §1

The subject of another assay is STEME. Described as above. Type of assay: in vivo, Stellaria media. The note with it: visual grading after ca. 3 weeks vs untreated controls, 100% = plants have died off, 0% = as control plants. An outline of the steps: as §1
Another assay deals with VERPE. The experiment in a line: B. Herbicidal post-emergence action on harmful plants (Tables B). The note with it: application rate 1280 g/ha; Table B11a. In kind it is in vivo, Veronica persica. An outline of the steps:
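Activity was scored visually as % damage (100% = dead, 0% = like untreated) about 3 weeks after treatment. Plants at the one-leaf stage, 2-3 weeks old, were sprayed with WP/EC formulations plus 0.5% additive (600 L/ha water, up to 1280 g/ha). Plants were grown in sandy loam in a greenhouse.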

The next assay deals with POAAN. Briefly: A. Herbicidal pre-emergence action on harmful plants (Tables A). Type of assay: in vivo, Poa annua. An outline of the steps: as §1
Another assay relates to KCHSC. The assay is described as above. Type of assay: in vivo, Kochia scoparia. The note with it: application rate 1280 g/ha; visual grading after ca. 3 weeks vs untreated controls; 100% = plants have died off, 0% = as control plants. The text has this: Seeds of mono- and dicotyledonous weed plants were sown in plastic pots (double sowings with one species of mono- and one species of dicotyledonous weed plants per pot), in sandy loam, and covered with soil. The compounds according to the invention, formulated in the form of wettable powders (WP) or as emulsifiable concentrates (EC), were applied to the surface of the covering soil as aqueous suspension or emulsion, with the addition of 0.5% of an additive, at an application rate of 6001 of water per hectare (converted). Following treatment, the pots were placed in a greenhouse and kept under optimum growth conditions for the test plants. The visual grading of the damage to the test plants was carried out after ca. 3 weeks in comparison to untreated controls (herbicidal effect in percent (%): 100% effect = plants have died off, 0% effect = as control plants). Tables A1 to A12, below, show the effects of selected compounds of the general formula (I) according to table 1 on various harmful plants and an application rate corresponding to 1280 g/ha or below obtained by the experimental procedure mentioned above. Table A1: pre-emergence activity at 1280g/ha against ABUTH in %

The next assay relates to DIGSA. The description is as above. Type of assay: in vivo, Digitaria sanguinalis. An outline of the steps: as §1
Where [1] appears, read: application rate 1280 g/ha, visual grading after ca. 3 weeks vs untreated controls, 100% = plants have died off, 0% = as control plants.

For `COCc1nn(Cc2ccccc2)cc1C(=O)N1CCCC1Cc1ccccc1F` (racemic) [Example I-024], the “pre-emergence activity against AMARE” value in the assay on AMARE (application rate 320 g/ha, Table A8b) was 90%; with AMARE (setting [1]), 90%. The “pre-emergence activity against SETVI” value in the assay with SETVI (application rate 80 g/ha), in the assay with SETVI (application rate 320 g/ha) and with SETVI (application rate 1280 g/ha) was 90% in each case. The “pre-emergence activity against MATIN” value with MATIN (application rate 80 g/ha), in the assay on MATIN (application rate 320 g/ha) and with MATIN (application rate 1280 g/ha) was 90% each time. Further, the “pre-emergence activity against STEME” value in the assay with STEME (application rate 320 g/ha) came to 90%; in the assay on STEME (application rate 1280 g/ha), 100%. The “post-emergence activity against VERPE” value in the assay on VERPE stood at 90%. The “pre-emergence activity against POAAN” value in the assay on POAAN (application rate 80 g/ha, Table A7c) was determined as 90%; in the assay on POAAN (application rate 320 g/ha, Table A7b), 90%; in the assay with POAAN (setting [1]), 100%. In addition, in the assay on KCHSC, the “pre-emergence activity against KCHSC” value came out at 90%. Also, the “pre-emergence activity against DIGSA” value in the assay on DIGSA (application rate 320 g/ha, Table A12b) was 90%; in the assay on DIGSA (application rate 1280 g/ha, Table A12a), 90%.

The values above are taken from EP4417602A1, “SUBSTITUTED PYRAZOLE CARBOXAMIDES, SALTS THEREOF AND THEIR USE AS HERBICIDALLY ACTIVE SUBSTANCES” (Bayer AG, priority 2023, dated 2024).
